Results from patent US10493046B2, “5-hydroxytryptamine 1B receptor-stimulating agent for use as a promoter of satellite cells self-renewal and/or differentiation” (INSTITUT PASTEUR, priority 2015, dated 2019).

How the values were obtained:
[1] = system: satellite cells; test: FACS-sorted satellite cells in vitro, compound added to the culture medium; type: cell-based, mouse
Method: Muscle dissection was done as previously described in cold DMEM. Muscles were then chopped with small scissors and put in a 50 ml Falcon tube with collagenase 0.1% and trypsin 0.25% at 37° C. with gentle agitation. After 20 minutes, the supernatant was collected in 20% serum placed on ice, and the collagenase/trypsin solution was added to continue the digestion. Once muscle was completely digested, the solution was filtrated using 40 μm cell strainers. Satellite cells were cultured in 1:1 DMEM-Glutamax (Gibco#41965-039):MCDB201 (Sigma#M6770) containing 20% serum FBS (Biowest S1860). Medium was filtered using 0.22 μm filters. Cells were plated on Matrigel coating (BD Biosciences#354234) and kept in an incubator (37° C., 5% CO2). […] The thus-obtained supernatant replaced FBS in the culture medium; the rest of the medium was unchanged.
Satellite cells were isolated from Tg:Pax7nGFP mice and cells were plated at 2.000 cells per cm^2. After overnight, vortioxetine was added at 10 μM. […] 14 days post-plating, a higher number of reserve cells (Pax7 positive cells that are quiescent in vitro) were detected in the vortioxetine-treated cells (9%±0.7) than in the PBS (3.5%±0.9, p=0.01), and when GR127935 inhibitor was added in vitro the number of reserve cells dropped (3.5%±0.9, p=0.9) (FIG. 11c). […] This difference in expression was lost when SC were plated with the GR127935 5-HT1 BR inhibitor (p=0.4) (FIGS. 11c-e). The positive effects of vortioxetine were lost when GR127935 was added in vitro together with vortioxetine (FIGS. 11c-e). These effects were however persistent when adding the 5-HT2 BR antagonist (FIGS. 11c-e). This means that the positive effects observed when plating vortioxetine in vitro with satellite cells is mediated via the 5HT1B receptor and not 5HT2B.
To test whether, 2 derivatives of vortioxetine, namely histidine-vortioxetine and pyrrolidinium-vortioxetine, could have similar or improved effect compared to the unmodified vortioxetine, the in vitro approach as described in section 2.2.3 above was used and the differentiation cascade of satellite cells was investigated by assessing the expression pattern of Pax7 (a marker of stemness and quiescence) and Myogenin (MyoG, a marker of differentiation) as described above in section 2.2.3. To do so, satellite cells from Tg:Pax7-nGFP were isolated by FACS and plated at 2.000 cells per cm^2 (seeded overnight). The following day, the vortioxetine, its derivatives, or the control PBS was added at 10 μM and the cells were fixed at the indicated time points.

[2] = system: HUVEC; test: In vitro HUVEC assay on cytodex beads in plasma of treated mice; type: cell-based, human; conditions: plasma from mice treated P.O 6 weeks; 4 days post plating
Method: C57Bl/6 mice were treated P.O for 6 weeks and plasma was extracted from blood. HUVEC cells were then plated on cytodex beads and cultured in either of the plasma. The growth of HUVEC incubated with plasma coming from treated animals was faster 4 days post plating (p≤0.0001) (FIGS. 2m-o).

[3] = system: serotonin receptors subtypes; test: RT-qPCR of serotonin receptor subtypes in FACS-sorted muscle cells after treatment; type: in vivo, mouse; conditions: 6 weeks P.O fluoxetine; FACS-sorted endothelial cells
Method: Total RNA was isolated from cells using the RNAeasy Micro kit (Qiagen). The total RNA was reverse-transcribed using Superscript® III Reverse transcriptase (Invitrogen). Real-time quantitative PCR was performed using Power Sybr Green PCR Master Mix (Applied Biosystems) and the rate of dye incorporation was monitored using the StepOne™ Plus RealTime PCR system (Applied Biosystems). At least three biological replicates were used for each condition. Data were analyzed by StepOne Plus RT PCR software v2.1 and Microsoft excel. GAPDH transcript levels were used for normalisation of each target (=ΔCT). Real-time PCR CT values were analyzed using the 2-(ΔΔCt) method to calculate the fold expression (ΔΔCTmethod, Livak et al., 2001).
RT-qPCR was then performed on serotonin receptors subtypes to further characterize by which the endothelial cells could be activated (FIG. 5b). […] The same observation was made in FACS cell-sorted SC from Tg:Pax7nGFP mice (FIG. 5b).

[4] = system: Mdx mice; test: Grip strength test in mdx mice; type: in vivo, mouse; conditions: fluoxetine treated mdx mice, 6 weeks; 4 limbs
Method: The grip strength test is a non-invasive method designed to evaluate mouse muscle force in vivo. A grip meter (Bio-GT3, BIOSEB), attached to a force transducer, measures the peak force generated. […] Five trials were conducted and, before statistical analysis, a mean value was calculated for each mouse using the tree median data. Results are expressed as the result of tree peak forces (in g), normalized to the body weight (in g).
This was confirmed on soleus muscle (data not shown).

| SMILES | Positive effects of vortioxetine (incl. MyoG expression difference) when GR127935 added ([1]; GR127935 added in vitro together with vortioxetine 10 μM) | Pax7 positive cells 4 days post-plating ([1]; vortioxetine 10 μM incubated with the GR127935 inhibitor) [%] | Reserve cells (quiescent Pax7 positive cells) 14 days post-plating ([1]; vortioxetine 10 μM, GR127935 inhibitor added in vitro) [%] | Growth of HUVEC vs placebo plasma [2] | Expression of other subtypes (5-HT1 AR, 5-HT1 DR, 5-HT1 FR, 5-HT2 AR, 5-HT2 CR) [3] | Total muscle force increase [4] [%] |
| --- | --- | --- | --- | --- | --- | --- |
| COc1ccc(NC(=O)c2ccc(-c3ccc(-c4noc(C)n4)cc3C)cc2)cc1N1CCN(C)CC1 [GR127935] | lost | 25.5 | 3.5 |  |  |  |
| CNCCC(Oc1ccc(C(F)(F)F)cc1)c1ccccc1 (stereo not drawn) [fluoxetine] |  |  |  | faster | non-statistically significant increase | 56 |
